# Laboratory results as given in patent US4673562A, “Bisamide bisthiol compounds useful for making technetium radiodiagnostic renal agents” (The Children's Medical Center Corporation, priority 1983, dated 1987).
# Several values for one entry are separate records, joined by “and”; a condition that tells them apart may be missing. Identical values can stand only once.
# What was measured:
# [1] = in vivo; cited from earlier work
# [2] = Biodistribution in Swiss Webster albino male mice, coinjected with 131I-OIH (Tables IV, V); assay type: in vivo, mouse
# Experimental: The diastereomers (XVIA) and (XVIB) were synthesized and then isolated by high pressure liquid chromatography as described previously, and their biodistributions obtained in groups in six Swiss Webster albino male mice. […] The mice were then placed in metabolic cages to collect urine. At 10 and 120 minutes after injection, the penis was ligated, the mice killed with chloroform vapor, and the organs disected.
# [3] = Gamma camera: % total dose in bladder, 99mTc complexes coinjected with 131I-OIH into normal dogs (Tables I, III); assay type: in vivo, dog; details: Table III, 35 min, coinjected with the 99mTc complex of the line
# Experimental: The two fractions collected from the products of synthesis in each case were denoted (XVIA), (XVIB), (XXXIA), and (XXXIB), respectively.
# Images were recorded at 1, 5, 10, 15, 20, 25, 30 and 35 minutes after administration. The initial image at one minute was used to collect 750,000 counts. All subsequent images were exposed for the same length of time as this first image, and the number of counts noted. […] In this way, the counts collected in the camera images cound be related to absolute activity levels (mCi or μCi). The animals were then observed until the urine samples were free of ^99m Tc.
# The values represent the calculated % total dose in the camera region of interest set over the bladder.
# [4] = cited from earlier work
# [5] = Solubility of bisthiol compound; assay type: physicochemical
# [6] = Table IV, 10 min, XVI A and 131I-OIH coinjected
# [7] = Table IV, 120 min, XVI A and 131I-OIH coinjected
# [8] = Table V, 10 min, XVI B and 131I-OIH coinjected
# [9] = Table V, 120 min, XVI B and 131I-OIH coinjected
smiles,measurement,setting,value
O=C1C[S][Tc-]23(=[O])[S]CC(=O)[N]2CC[N]13 [[TcO(ema)]-],excretion route and metabolic state,[1],excreted into both the urine and bile in a chemically unchanged form
"O=C(O)CNC(=O)c1ccccc1[131I] [Compound 131I-OIH, ^131 I-ortho-iodohippurate, reference compound]","Blood, % total dose per organ ± s.d.",[2]; [6],2.80 ± 0.24 % total dose per organ
same,"Intestine, % total dose per organ ± s.d.",[2]; [6],1.15 ± 0.23 % total dose per organ
same,"Kidneys, % total dose per organ ± s.d.",[2]; [6],2.18 ± 0.29 % total dose per organ
same,"Liver, % total dose per organ ± s.d.",[2]; [6],1.36 ± 0.24 % total dose per organ
same,"Stomach, % total dose per organ ± s.d.",[2]; [6],0.36 ± 0.10 % total dose per organ
same,"Urine, % total dose ± s.d.",[2]; [6],64.80 ± 7.31 % total dose per organ
same,"Blood, % total dose per organ ± s.d.",[2]; [7],0.22 ± 0.04 % total dose per organ
same,"Intestine, % total dose per organ ± s.d.",[2]; [7],0.45 ± 0.19 % total dose per organ
same,"Kidneys, % total dose per organ ± s.d.",[2]; [7],0.01 ± 0.06 % total dose per organ
same,"Liver, % total dose per organ ± s.d.",[2]; [7],0.14 ± 0.03 % total dose per organ
same,"Stomach, % total dose per organ ± s.d.",[2]; [7],0.60 ± 0.19 % total dose per organ
same,"Urine, % total dose ± s.d.",[2]; [7],89.86 ± 3.03 % total dose per organ
same,"Blood, % total dose per organ ± s.d.",[2]; [8],2.11 ± 0.62 % total dose per organ
same,"Intestine, % total dose per organ ± s.d.",[2]; [8],0.91 ± 0.27 % total dose per organ
same,"Kidneys, % total dose per organ ± s.d.",[2]; [8],3.09 ± 3.36 % total dose per organ
same,"Liver, % total dose per organ ± s.d.",[2]; [8],1.20 ± 0.41 % total dose per organ
same,"Stomach, % total dose per organ ± s.d.",[2]; [8],0.42 ± 0.63 % total dose per organ
same,"Urine, % total dose ± s.d.",[2]; [8],78.86 ± 5.1 % total dose per organ
same,"Blood, % total dose per organ ± s.d.",[2]; [9],0.19 ± 0.08 % total dose per organ
same,"Intestine, % total dose per organ ± s.d.",[2]; [9],0.24 ± 0.04 % total dose per organ
same,"Kidneys, % total dose per organ ± s.d.",[2]; [9],0.05 ± 0.04 % total dose per organ
same,"Liver, % total dose per organ ± s.d.",[2]; [9],0.10 ± 0.04 % total dose per organ
same,"Stomach, % total dose per organ ± s.d.",[2]; [9],0.71 ± 0.27 % total dose per organ
same,"Urine, % total dose ± s.d.",[2]; [9],93.25 ± 0.89 % total dose per organ
same,"% total dose in bladder at 35 minutes, Average 131I (± s.d)",[3]; average of dogs,73.60 % total dose and 72.02 % total dose and 76.69 % total dose and 80.87 % total dose
same,"% total dose in bladder at 35 minutes, 131I",[3]; single dogs,73.14 % total dose and 77.31 % total dose and 70.39 % total dose and 61.75 % total dose and 77.21 % total dose and 77.10 % total dose and 74.35 % total dose and 82.53 % total dose and 73.20 % total dose and 87.52 % total dose and 75.71 % total dose and 79.39 % total dose
same,time to maximum uptake in normal kidneys,[4]; bolus injection,within the first five minutes
same,clearance relative to PAH,[4]; in vivo,lower clearance than PAH
same,injected dose found in the urine,"[4]; normally hydrated patient, at thirty minutes, 30 min",approximately 70%
same,clearance from the renal parenchyma and collecting system,"[4]; normally hydrated patient, bolus injection",within thirty minutes
O=C([O-])CN(CCN(CC(=O)[O-])CC(=O)[O-])CCN(CC(=O)[O-])CC(=O)[O-].[99Tc+4] [Compound 99mTc-DTPA],route of excretion,[4]; in vivo,excreted exclusively by glomerular filtration
"O=C(NCCS)C(=O)NCCS [XXXII, N, N'-bis(2-mercaptoethyl)oxamide]",solubility,[5],"soluble only in DMSO, trifluoroacetic acid and aqueous alkali"
"Nc1ccc(C(=O)NCC(=O)O)cc1 [PAH, Paraaminohippuric acid]",elimination by glomerular filtration,[4]; kidneys,20%
same,elimination by tubular secretion,[4]; kidneys,80%
same,renal plasma flow as measured by PAH,[4]; normal adult,about 575 ml/minute
same,extraction by the normal kidney,[4]; normal kidney,90%
